Laboratory results as given in the supplement of paper PMC10307832.

What was measured:
Assay in all cases: relative viability (nuclei count vs DMSO), 5 days (fraction); higher = more cells survive
AT-7519 + Trametinib = compound: O=C(NC1CCNCC1)c1n[nH]cc1NC(=O)c1c(Cl)cccc1Cl [AT-7519] + CC(=O)Nc1cccc(-n2c(=O)n(C3CC3)c(=O)c3c(Nc4ccc(I)cc4F)n(C)c(=O)c(C)c32)c1 [Trametinib] (partner 0.02 µM)
Summary of the method: (§1)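 Lung cancer cell lines in 1536-well plates got either a single drug or a fixed anchor-drug dose together with five library-drug doses (not always all listed) in √10 steps, by pin tool, on the day after seeding. Nuclei were counted after 5 days, and relative viability is the treated-to-vehicle ratio of nuclei counts. Values are medians of duplicate plates.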

[1] = compound: C1=CC2=C(C=C(C(=C2N=C1)O)N=NC3=CC4=C(C=C3)C=C(C=C4)S(=O)(=O)O)S(=O)(=O)O + O=C(c1cc(Cc2n[nH]c(=O)c3ccccc23)ccc1F)N1CCN(C(=O)C2CC2)CC1 [Olaparib] (partner 8 µM)
Summary of the method: as §1

AT-7519 + OSI-027 = compound: O=C(NC1CCNCC1)c1n[nH]cc1NC(=O)c1c(Cl)cccc1Cl [AT-7519] + COc1cccc2cc(-c3nc([C@H]4CC[C@H](C(=O)O)CC4)n4ncnc(N)c34)[nH]c12 [OSI-027] (partner 0.5 µM)
Summary of the method: as §1

AT-7519 + Crizotinib = compound: O=C(NC1CCNCC1)c1n[nH]cc1NC(=O)c1c(Cl)cccc1Cl [AT-7519] + C[C@@H](Oc1cc(-c2cnn(C3CCNCC3)c2)cnc1N)c1c(Cl)ccc(F)c1Cl [Crizotinib] (partner 1 µM)
Summary of the method: as §1

Cell Line	relative viability (AT-7519 + Trametinib; first compound 0.01 µM)	relative viability (AT-7519 + Trametinib; first compound 0.3162 µM)	relative viability (AT-7519 + Trametinib; first compound 1 µM)	relative viability ([1]; first compound 0.253 µM)	relative viability ([1]; first compound 8 µM)	relative viability (AT-7519 + OSI-027; first compound 0.01 µM)	relative viability (AT-7519 + OSI-027; first compound 0.3162 µM)	relative viability (AT-7519 + OSI-027; first compound 1 µM)	relative viability (AT-7519 + Crizotinib; first compound 0.01 µM)	relative viability (AT-7519 + Crizotinib; first compound 0.03162 µM)	relative viability (AT-7519 + Crizotinib; first compound 0.3162 µM)	relative viability (AT-7519 + Crizotinib; first compound 1 µM)	relative viability (AT-7519 + Trametinib; first compound 0.03162 µM)	relative viability ([1]; first compound 0.08 µM)	relative viability ([1]; first compound 0.8 µM)	relative viability ([1]; first compound 2.53 µM)	relative viability (AT-7519 + OSI-027; first compound 0.03162 µM)
NCI-H1648	0.39	0.366	0.335	0.793	0.893	0.265	0.262	0.293	–	–	–	–	–	–	–	–	–
SK-MES-1	0.535	0.537	0.461	0.703	0.707	0.615	0.564	0.332	1.05	0.903	0.854	0.787	0.607	0.793	0.609	0.691	0.58
HCC-366	0.323	0.316	0.17	0.402	0.319	0.769	0.89	0.718	0.463	0.668	0.457	0.179	0.281	0.432	0.335	0.361	0.808
201T	0.731	0.684	0.64	0.82	0.832	0.694	1.01	0.812	1.04	1.1	1.03	1.09	0.798	0.846	0.871	0.852	0.739
HCC-827	0.488	0.542	0.28	0.524	0.687	0.842	0.705	0.539	0.895	0.945	0.862	0.855	0.519	0.68	0.647	0.568	0.72
NCI-H647	0.439	0.475	0.159	0.48	0.545	0.538	0.676	0.471	0.812	0.873	0.965	0.411	0.342	0.516	0.522	0.65	0.675
NCI-H2023	0.541	0.437	0.131	0.443	0.416	0.435	0.351	0.203	0.702	0.697	0.605	0.125	0.566	0.509	0.442	0.528	0.347
NCI-H520	0.741	0.673	0.229	0.342	0.387	0.254	0.26	0.241	0.753	0.768	0.595	0.269	0.494	0.327	0.337	0.301	0.285
RERF-LC-KJ	0.865	0.758	0.423	0.964	1.02	0.572	0.54	0.25	0.802	0.738	0.963	0.806	0.864	0.889	0.987	0.959	0.53
A-427	0.728	0.716	0.338	0.763	0.736	0.419	0.477	0.187	0.931	0.823	0.964	0.576	0.71	0.727	0.709	0.825	0.389
NCI-H441	0.429	0.32	0.23	0.57	0.595	0.679	0.582	0.408	0.656	0.905	0.673	0.428	0.474	0.617	0.586	0.531	0.603
NCI-H1703	–	–	–	–	0.41	–	–	–	0.585	0.59	0.508	0.0921	–	0.3	0.339	0.475	–
NCI-H1792	0.399	0.506	0.225	0.253	0.432	–	0.869	0.791	0.548	0.916	0.904	1.09	0.4	0.579	0.355	0.507	–
Calu-6	–	–	–	0.546	0.658	–	–	–	0.928	0.855	0.677	0.141	–	0.55	0.55	0.58	–
SK-LU-1	0.498	0.416	0.309	0.475	0.512	0.356	0.282	0.168	1.12	0.799	0.713	0.48	0.46	0.603	0.399	0.567	0.315
PC-3 [JPC-3]	0.715	0.767	0.53	1.15	1.09	0.706	0.697	0.696	1.09	0.99	0.962	0.95	0.667	1.31	1.17	1.14	0.904
EMC-BAC-2	0.92	0.845	0.376	0.485	0.465	0.363	0.358	0.476	0.766	0.744	0.746	0.881	0.835	0.504	0.493	0.489	0.343
LK-2	0.643	0.716	0.271	0.678	0.728	0.182	0.19	0.189	0.229	0.235	0.251	0.227	0.67	0.892	0.581	0.74	0.217
NCI-H2126	0.583	0.554	0.44	0.901	0.874	0.668	0.575	0.688	1.07	1.05	0.931	1	0.594	0.957	0.904	0.893	0.665
NCI-H3122	0.255	0.225	0.148	0.623	0.584	1.09	0.357	0.152	0.272	0.277	0.241	0.208	0.213	0.643	0.561	0.644	0.871
NCI-H1975	0.339	0.342	0.165	0.854	0.824	0.827	0.503	0.191	1.09	0.973	0.877	0.206	0.311	0.868	0.772	0.795	0.778
NCI-H1944	0.423	0.362	0.302	0.402	0.33	0.436	0.367	0.328	1.18	1.34	0.926	0.862	0.481	0.407	0.426	0.416	0.402

Cell Line	relative viability (AT-7519 + Trametinib; first compound 0.01 µM)	relative viability (AT-7519 + Trametinib; first compound 0.3162 µM)	relative viability (AT-7519 + Trametinib; first compound 1 µM)	relative viability ([1]; first compound 0.253 µM)	relative viability ([1]; first compound 8 µM)	relative viability (AT-7519 + OSI-027; first compound 0.01 µM)	relative viability (AT-7519 + OSI-027; first compound 0.3162 µM)	relative viability (AT-7519 + OSI-027; first compound 1 µM)	relative viability (AT-7519 + Crizotinib; first compound 0.01 µM)	relative viability (AT-7519 + Crizotinib; first compound 0.03162 µM)	relative viability (AT-7519 + Crizotinib; first compound 0.3162 µM)	relative viability (AT-7519 + Crizotinib; first compound 1 µM)	relative viability (AT-7519 + Trametinib; first compound 0.03162 µM)	relative viability ([1]; first compound 0.08 µM)	relative viability ([1]; first compound 0.8 µM)	relative viability ([1]; first compound 2.53 µM)	relative viability (AT-7519 + OSI-027; first compound 0.03162 µM)
LU99A	0.67	0.52	0.24	0.282	0.243	0.315	0.223	0.299	0.579	0.539	0.517	0.357	0.53	0.264	0.286	0.257	0.248
SW 1573	0.603	0.37	0.109	0.413	0.29	0.604	0.436	0.107	0.817	0.755	0.84	0.368	0.494	0.574	0.523	0.483	0.659
NCI-H2347	0.263	0.274	0.254	0.538	0.8	0.457	0.358	0.229	0.627	0.706	0.645	0.573	0.256	0.569	0.618	0.569	0.389
NCI-H2009	0.306	0.25	0.181	0.663	0.711	0.638	0.587	0.321	1.21	1.07	1.12	0.295	0.287	0.656	0.681	0.743	0.665
HCC-15	0.404	0.374	0.24	0.682	0.727	0.673	0.54	0.34	0.864	0.718	0.741	0.502	0.371	0.879	0.714	0.698	0.632
HCC-44	1.1	1.06	0.716	0.945	0.933	0.516	0.28	0.317	0.773	0.781	0.903	0.778	1.04	1.02	0.956	0.982	0.493
COR-L23	0.83	0.469	0.103	0.344	0.296	0.672	0.459	0.294	0.639	0.632	0.653	0.132	0.643	0.308	0.35	0.394	0.778
HCC-78	0.688	0.963	0.46	0.908	0.811	0.386	0.349	0.341	0.33	0.324	0.331	0.42	0.712	0.971	0.733	0.801	0.395
NCI-H1299	–	–	–	0.95	0.976	–	–	–	1.03	0.997	0.947	0.31	–	1.01	0.935	0.956	–
NCI-H727	0.34	0.37	0.384	0.676	0.665	0.68	0.517	0.408	0.968	0.875	0.6	0.27	0.414	0.635	0.684	0.859	0.632
ABC-1	–	–	–	0.762	0.916	0.523	0.326	0.151	1.06	1.35	0.591	0.183	–	0.634	0.754	0.684	0.455
NCI-H1793	0.492	0.433	0.218	0.762	0.891	0.229	0.285	0.247	–	–	–	–	0.489	1	0.883	0.952	0.254
SW 900	0.986	0.659	0.401	0.826	0.757	0.489	0.624	0.424	–	–	–	–	0.744	1.1	0.75	0.878	0.581
NCI-H1563	–	–	–	–	–	0.737	0.722	0.728	0.857	0.809	1.02	0.702	–	–	–	–	0.794
A549	–	–	–	0.331	0.135	–	–	–	0.635	0.867	0.55	0.25	–	0.469	0.299	0.313	–
NCI-H2342	0.779	0.809	0.817	0.466	0.711	0.628	0.591	0.62	–	–	–	–	0.784	0.476	0.452	0.462	0.533
NCI-H1623	–	–	–	–	–	0.529	0.432	0.362	–	–	–	–	–	–	–	–	0.424
NCI-H522	0.717	0.757	0.717	0.625	0.708	–	0.609	0.792	–	–	–	–	0.835	0.601	0.564	0.561	0.77
NCI-H1395	1.16	0.799	0.499	0.47	0.402	0.659	0.525	0.62	–	–	–	–	1.04	0.498	0.489	0.469	0.618
IA-LM	–	–	–	0.777	0.952	–	–	–	1.02	1.03	0.573	0.0695	–	1.01	0.788	0.747	–
EBC-1	–	–	–	0.634	0.732	–	–	–	0.198	0.228	0.191	0.153	–	0.808	0.694	0.758	–
